The values below come from US11091494B2, “Crystal form of acalabrutinib and preparation method and use thereof” (Crystal Pharmaceutical (Suzhou) Co., Ltd., priority 2018, dated 2021).

The conditions of data set [1]: cited from earlier work; for Highest water content: water content varies in different conditions.
Data set [2] is described as follows: Stability of crystalline form on storage, checked by XRPD. Type of data set: physicochemical. The following applies: for Solid form: 2 months, XRPD. As to the method: Approximately 10 mg of Form A of the present disclosure was weighed and stored at different conditions of 25° C./60% RH in open dish, 25° C./60% RH in closed dish, 40° C./75% RH in open dish, and 40° C./75% RH in closed dish. Crystalline forms were checked by XRPD.
Approximately 10 mg of Form D of the present disclosure was weighed and stored at different conditions of 25° C./60% RH in closed dish, 25° C./60% RH in open dish, 40° C./75% RH in closed dish. Crystalline form was checked by XRPD.
Approximately 10 mg of Form F of the present disclosure was weighed and stored at different conditions of 25° C./60% RH in closed dish, 25° C./60% RH in open dish, and 40° C./75% RH in closed dish, 40° C./75% RH in open dish. Crystalline forms were checked by XRPD.
Approximately 10 mg of Form G of the present disclosure was weighed and stored at 25° C./60% RH in closed dish. Crystalline forms were checked by XRPD.
Approximately 10 mg of Form CS15 of the present disclosure was weighed and stored at different conditions of 25° C./60% RH in open dish, 25° C./60% RH in closed dish. Crystalline forms were checked by XRPD.

Data set [3] in a line: Intrinsic dissolution rate in pH 2.5 HCl/NaCl aqueous solution. The following applies: for Cumulative dissolution / IDR (intrinsic dissolution rate): pH 2.5 HCl/NaCl, 37° C.; for Cumulative dissolution: 0.5 cm^2 pellet; for IDR (intrinsic dissolution rate): slope over 0-45 minutes. The data set is classed as physicochemical. How it is done:
Approximately 200 mg of Form A and Form I in WO2017002095A1 were added into the die, compressed at 10 kN and held for 1 minute to obtain a pellet having a surface area of 0.5 cm^2. The whole tool with the pellet was transferred to a dissolution apparatus to test the intrinsic dissolution rate. The slope (mg/min) was calculated according to the data within 0-45 minutes. Intrinsic dissolution rate (IDR, mg/min/cm^2) was further calculated according to the slope.
Approximately 200 mg of Form D and Form I in WO2017002095A1 were added into the die, compressed at 10 kN and held for 1 minute to obtain a pellet having a surface area of 0.5 cm^2. The whole tool with the pellet was transferred to a dissolution apparatus to test the intrinsic dissolution rate. The slope (mg/min) was calculated according to the data within 0-45 minutes. Intrinsic dissolution rate (IDR, mg/min/cm^2) was further calculated according to the slope.
Approximately 200 mg of Form F and Form I in WO2017002095A1 were added into the die, compressed at 10 kN and held for 1 minute to obtain a pellet having a surface area of 0.5 cm^2. The whole tool with the pellet was transferred to a dissolution apparatus to test the intrinsic dissolution. The slope (mg/min) was calculated according to the data within 0-45 minutes. Intrinsic dissolution rate (IDR, mg/min/cm^2) was further calculated according to the slope.
Approximately 200 mg of Form G and Form I in WO2017002095A1 were added into the die, compressed at 10 kN and held for 1 minute to obtain a pellet having a surface area of 0.5 cm^2. The whole tool with the pellet was transferred to a dissolution apparatus to test the intrinsic dissolution. The slope (mg/min) was calculated according to the data within 0-45 minutes. Intrinsic dissolution rate (IDR, mg/min/cm^2) was further calculated according to the slope.
Approximately 200 mg of Form CS15 and Form I in WO2017002095A1 were added into the die, compressed at 10 kN and held for 1 minute to obtain a pellet having a surface area of 0.5 cm^2. The whole tool with the pellet was transferred to a dissolution apparatus to test the intrinsic dissolution. The slope (mg/min) was calculated according to the data within 0-45 minutes. Intrinsic dissolution rate (IDR, mg/min/cm^2) was further calculated according to the slope.

Data set [4] is described as follows: Compressibility (tensile strength of compressed tablet). Type of data set: physicochemical. The following applies: about 80 mg, φ6 mm round tooling, compressed at 10 kN. How it is done:
Approximately 80 mg of Form A and Form I in WO2017002095A1 were weighed into the dies of a φ6 mm round tooling, compressed at 10 kN manually, then stored in a desiccator for 24 hours until complete elastic recovery. Radial crushing force (hardness, H) was tested with an intelligent tablet hardness tester. Diameter (D) and thickness (L) were tested with a caliper. Tensile strength of the powder that with different hardness was calculated with the following formula: T=2H/πDL. Under a certain force, the greater the tensile strength, the better the compressibility.
Approximately 80 mg of Form D and Form I in WO2017002095A1 were weighed into the dies of a φ6 mm round tooling, compressed at 10 kN manually, and then stored in a desiccator for 24 hours until complete elastic recovery. Radial crushing force (hardness, H) was tested with an intelligent tablet hardness tester. Diameter (D) and thickness (L) were tested with a caliper. Tensile strength of the powder with different hardness was calculated with the following formula: T=2H/πDL. Under a certain force, the greater the tensile strength, the better the compressibility.
Approximately 80 mg of Form F and Form I in WO2017002095A1 were weighed into the dies of a φ6 mm round tooling, compressed at 10 kN manually, and then stored in a desiccator for 24 hours until complete elastic recovery. Radial crushing force (hardness, H) was tested with an intelligent tablet hardness tester. Diameter (D) and thickness (L) were tested with caliper. Tensile strength of the powder with different hardness was calculated with the following formula: T=2H/πDL. Under a certain force, the greater the tensile strength, the better the compressibility.
Approximately 80 mg of Form G and Form I of WO2017002095A1 were weighed into the dies of a φ6 mm round tooling, compressed at 10 kN manually, and then stored in a desiccator for 24 hours until complete elastic recovery. Radial crushing force (hardness, H)) was tested with an intelligent tablet hardness tester. Diameter (D) and thickness (L) were tested with caliper. Tensile strength of the powder with different hardness was calculated with the following formula: T=2H/πDL. Under a certain force, the greater the tensile strength, the better the compressibility.
Approximately 80 mg of Form CS15 and Form I in WO2017002095A1 were weighed into the dies of a φ6 mm round tooling, compressed at 10 kN manually, and then stored in a desiccator for 24 hours until complete elastic recovery. Radial crushing force (hardness, H) was tested with an intelligent tablet hardness tester. Diameter (D) and thickness (L) were tested with caliper. Tensile strength of the powder with different hardness was calculated with the following formula: T=2H/πDL. Under a certain force, the greater the tensile strength, the better the compressibility.

Data set [5] in a line: Adhesiveness (amount of material sticking to the punch). The data set is classed as physicochemical. The following applies: about 30 mg, φ8 mm round tooling, 10 kN, compression repeated twice. How it is done:
Approximately 30 mg of Form A and Form I in WO2017002095A1 were weighed, added into the dies of a φ8 mm round tooling, compressed at 10 kN and held for about 30 s. The amount of material sticking to the punch was weighed. The compression was repeated twice and the cumulative amount and average amount of material sticking to the punch during the compression were recorded.
Approximately 30 mg of Form F and Form I in WO2017002095A1 were weighed, added into the dies of a φ8 mm round tooling, compressed at 10 kN and held for about 30 s. The amount of material sticking to the punch was weighed. The compression was repeated twice and the cumulative amount and average amount of material sticking to the punch during the compression were recorded.
Approximately 30 mg of Form G and Form I in WO2017002095A1 were weighed, added into the dies of a φ8 mm round tooling, compressed at 10 kN and held for about 30 s. The amount of material sticking to the punch was weighed. The compression was repeated twice and the cumulative amount and average amount of material sticking to the punch during the compression were recorded.

In the case of `CC#CC(=O)N1CCC[C@H]1c1nc(-c2ccc(C(=O)Nc3ccccn3)cc2)c2c(N)nccn12` [Crystalline form II, (S)-4-(8-amino-3-(1-(but-2-ynoyl)pyrrolidin-2-yl)imidazo[1,5-a]pyrazin-1-yl)-N-(pyridin-2-yl)benzamide], the Flowability result in data set [1] (as disclosed in WO2017002095A1) is “poor”. For the same molecule, in data set [1], the Highest water content is listed as 10%.

Turning to `CC#CC(=O)N1CCC[C@H]1c1nc(-c2ccc(C(=O)Nc3ccccn3)cc2)c2c(N)nccn12` [Crystalline form III, (S)-4-(8-amino-3-(1-(but-2-ynoyl)pyrrolidin-2-yl)imidazo[1,5-a]pyrazin-1-yl)-N-(pyridin-2-yl)benzamide], the “Stability of the crystalline form” value in data set [1] (as disclosed in WO2017002095A1) is given as “unstable”. The Highest water content in data set [1] is recorded as 8%.

On to `CC#CC(=O)N1CCC[C@H]1c1nc(-c2ccc(C(=O)Nc3ccccn3)cc2)c2c(N)nccn12` [Crystalline form IV, (S)-4-(8-amino-3-(1-(but-2-ynoyl)pyrrolidin-2-yl)imidazo[1,5-a]pyrazin-1-yl)-N-(pyridin-2-yl)benzamide], for which, in data set [1] (as disclosed in WO2017002095A1), the “Stability of the crystalline form” value is “unstable”.

As to `CC#CC(=O)N1CCC[C@H]1c1nc(-c2ccc(C(=O)Nc3ccccn3)cc2)c2c(N)nccn12` [Form D, (S)-4-(8-amino-3-(1-(but-2-ynoyl)pyrrolidin-2-yl)imidazo[1,5-a]pyrazin-1-yl)-N-(pyridin-2-yl)benzamide], the “Time kept stable (crystalline state doesn't change)” value in data set [2] (25° C./60% RH in closed dish), in data set [2] (25° C./60% RH in open dish) and in data set [2] (40° C./75% RH in closed dish) was “at least 2 months” each time. In addition, the Solid form entry in data set [2] (25° C./60% RH in closed dish), in data set [2] (25° C./60% RH in open dish) and in data set [2] (40° C./75% RH in closed dish) was “Form D” throughout. Further, the “Chemical purity on storage” value in data set [2] (25° C./60% RH in open and closed dishes, at least 2 months) is recorded as “remains substantially unchanged”. The Cumulative dissolution in data set [3] (0 min) is 0.00 mg; in data set [3] (5 min), 0.70 mg; in data set [3] (10 min), 1.73 mg; in data set [3] (15 min), 2.82 mg; in data set [3] (20 min), 3.57 mg; in data set [3] (25 min), 4.77 mg. The Cumulative dissolution in data set [3] (30 min) was found to be 6.26 mg; in data set [3] (35 min), 7.36 mg; in data set [3] (45 min) it was 9.72 mg. In addition, the “IDR relative to that of Form I in WO2017002095A1” value in data set [3] (pH 2.5 HCl/NaCl solution) came to 1.1 times. In data set [3], the “IDR (intrinsic dissolution rate)” value was 0.4112 mg/min/cm^2. This molecule returned a Tensile strength in data set [4] of 0.83 MPa.

Turning to `CC#CC(=O)N1CCC[C@H]1c1nc(-c2ccc(C(=O)Nc3ccccn3)cc2)c2c(N)nccn12` [Form I in WO2017002095A1, (S)-4-(8-amino-3-(1-(but-2-ynoyl)pyrrolidin-2-yl)imidazo[1,5-a]pyrazin-1-yl)-N-(pyridin-2-yl)benzamide, reference compound], the “Average amount (material sticking to the punch)” value in data set [5] came out at 45 µg. The “Cumulative amount (material sticking to the punch)” value in data set [5] came out at 90 µg. Also, the Cumulative dissolution worked out at 0.00 mg in data set [3] (0 min); 0.92 mg in data set [3] (5 min); 1.64 mg in data set [3] (10 min); 2.81 mg in data set [3] (15 min); 3.66 mg in data set [3] (20 min); 4.62 mg in data set [3] (25 min). Moreover, the Cumulative dissolution in data set [3] (30 min) is 5.58 mg; in data set [3] (35 min) it was 6.40 mg; in data set [3] (45 min), 8.16 mg. Further, the “IDR (intrinsic dissolution rate)” value in data set [3] stood at 0.3656 mg/min/cm^2. The Tensile strength entry in data set [4] is recorded as “Unable to be compressed”.
